Assay results published in patent US10238631B2, “Sesquiterpene derivatives and their use in inflammation or cancer treatment” (Academia Sinica, priority 2014, dated 2019).

Assays:
[1] = test system: TS/A (ER+, Her2−) murine mammary cancer cells; experiment: MTT cell viability assay, TS/A cells; format: cell-based; conditions: Mus musculus, 24 h, read-out: IC50 on cell viability, TS/A (ER+, Her2−)
Description: (§1) Normal or cancer cells (2×10^3 to 1×10^4 cells/well) were seeded in 96-well plate for overnight and treated with different compounds for 24 h to 72 h. Cells growth were determined by MTT-based colorimetric assays according to. Viability of the test cells treated with vehicle (0.5% DMSO) only was defined as 100% viable. Survival of cells after treatment with DETDs was calculated using the following formula: viable cell number (%)=OD570 (treated cell culture)/OD570 (vehicle control)×100.
(§2) Sixty DETDs were derived from parental compound […] and tested for anti-breast cancer cell activity.

[2] = test system: MDA-MB-231 (ER−, PR−, Her2−) human breast cancer cells; experiment: MTT cell viability assay, MDA-MB-231 cells; format: cell-based; conditions: Homo sapiens, MDA-MB-231, 24 h, read-out: IC50 on cell viability, MDA-MB-231 (ER−, PR−, Her2−)
Description: as §1, §2

[3] = test system: MCF-7 (ER+, Her2−) human breast cancer cells; experiment: MTT cell viability assay, MCF-7 cells; format: cell-based; conditions: MCF7, 24 h, read-out: IC50 on cell viability, MCF-7 (ER+, Her2−)
Description: as §1, §2

[4] = test system: M10 normal mammary epithelial cells; experiment: MTT cell viability assay, M10 normal cells; format: cell-based, human; conditions: 24 h; for IC50: Homo sapiens, Epithelial cell
Description: as §1, §2

B16-F10 (NRAS mutation) = experiment: MTT cell viability assay, B16-F10 melanoma; format: cell-based; conditions: Mus musculus, B16-F10, 24 h, 24 h, read-out: IC50 on cell viability, B16-F10 (NRAS mutation)
Description: as §1
(§3) Several genes are involved in melanoma development and pathology; specifically, mutation in V-raf murine sarcoma viral oncogene homolog B1 (B-RAF) occurs approximately 50-60% and in neuroblastoma RAS viral oncogene homolog (N-RAS) occurs about 30% of malignant melanomas. A spectrum of wild-type or mutated melanoma cell lines including B16-F10, MeWo, A375, A2058, HTB-68, and melanocyte were used to study anti-melanoma cell proliferation activity of parental phytocompound DET and newly synthesized DETDs.

[5] = test system: MeWo (No NRAS or BRAF mutation); experiment: MTT cell viability assay, MeWo melanoma; format: cell-based, human; conditions: Homo sapiens, MeWo, 24 h
Description: as §1, §3

HTB-68 (NRAS mutation) = experiment: MTT cell viability assay, HTB-68 melanoma; format: cell-based, human; conditions: Homo sapiens, 24 h
Description: as §1, §3

A2058 (BRAF mutation) = experiment: MTT cell viability assay, A2058 melanoma; format: cell-based, human; conditions: Homo sapiens, A2058, 24 h
Description: as §1, §3

A375 (BRAF mutation) = experiment: MTT cell viability assay, A375 melanoma; format: cell-based, human; conditions: Homo sapiens, A-375, 24 h, 24 h, MTT; read-out: IC50 on cell viability, A375 (BRAF mutation)
Description: as §1, §3
To investigate whether or not DETD-35 show synergism with PLX4032 against A375 melanoma cells, we performed anti-proliferation assay using MTT reagent to obtain IC50 of each compound. […] The synergistic effect was quantified by combination index (CI) analysis as stated above.

[6] = test system: Melanocyte (Normal cells); experiment: MTT cell viability assay, normal melanocytes; format: cell-based, human; conditions: Homo sapiens, Melanocyte, 24 h
Description: as §1, §3

[7] = test system: RAW264.7 (normal macrophage); experiment: MTT cell viability assay, RAW264.7 macrophages; format: cell-based, mouse; conditions: Mus musculus, RAW264.7, 24 h
Description: as §1
(§4) Marcophages (2×10^5 cells/well in 96-well plate) were treated with compounds for 1 h, then incubated further for 24 h with or without the presence of […] LPS in the cultural medium. Nitrite levels in cell culture medium were determined by the Griess reaction method. In parallel to the Griess assays, macrophage cell viabilities were determined using the MTT based colorimetric assay.

[8] = test system: LPS-induced nitric oxide (NO) production in RAW 264.7 cells; experiment: Nitric oxide production in LPS-stimulated macrophages (Griess); format: cell-based, mouse; conditions: Mus musculus; LPS-stimulated RAW264.7, nitrite 24 h after LPS
Description: as §4
LPS from the outer membrane of Gram-negative bacteria can induce mRNA or protein levels of inducible nitric oxide synthase (iNOS), which catalyzes oxidative deamination of L-arginine to produce nitric oxide (NO). Once NO is predominantly produced, it interacts with superoxide anion and generates highly reactive oxidants resulting in cellular inflammation, DNA, protein and tissue damages, carcinogenesis, and antiapoptosis. We used in vitro LPS stimulated inflammation in RAW264.7 cell system to evaluate the effect of DET and its derivatives DETDs on NO production by determination of nitrite level (equivalent to NO level) in culture medium 24 h after LPS treatment.

[9] = test system: melanoma cell lines B16-F10, MeWo, A375, A2058, HTB-68; experiment: MTT cell viability assay, all melanoma cell lines; format: cell-based; conditions: 24 h, read-out: IC50 values over all types of melanoma cell lines
Description: as §1, §3

## C=C1C(=O)OC2CC3=C[C@@H](C/C(C)=C/[C@@H](OC(=O)Cc4csc5ccccc45)[C@H]12)OC3=O (stereo partly shown) [DETD-58]
[1]
  IC50: 2.1 µM
[2]
  IC50: 3.8 µM
[3]
  IC50: 3.8 µM
[4]
  IC50: 5.8 µM
B16-F10 (NRAS mutation)
  IC50: 5.6 µM
[5]
  IC50: 8.3 µM
HTB-68 (NRAS mutation)
  IC50: 3.8 µM
A2058 (BRAF mutation)
  IC50: 5 µM
A375 (BRAF mutation)
  IC50: 2.1 µM
[6]
  IC50: > 10 µM
[7]
  IC50: > 10 µM
[8]
  IC50: 3.6 µM
[9]
  IC50: 1.6 to 9.9 µM

## C=C1C(=O)OC2CC3=C[C@@H](C/C(C)=C/[C@@H](OC(=O)C(C)(OC)c4ccc5ccccc5c4)[C@H]12)OC3=O (stereo partly shown) [DETD-55]
[1]
  IC50: 2.8 µM
[2]
  IC50: 4.1 µM
[3]
  IC50: > 7.5 µM
[4]
  IC50: > 7.5 µM
B16-F10 (NRAS mutation)
  IC50: 4.8 µM
[5]
  IC50: 9 µM
HTB-68 (NRAS mutation)
  IC50: 5.3 µM
A2058 (BRAF mutation)
  IC50: 6.1 µM
A375 (BRAF mutation)
  IC50: 2.6 µM
[6]
  IC50: > 10 µM
[7]
  IC50: > 10 µM
[8]
  IC50: 2.9 µM
[9]
  IC50: 1.6 to 9.9 µM

## C=C1C(=O)OC2CC3=C[C@@H](C/C(C)=C/C(OC(=O)[C@@H](C)c4ccc5cc(OC)ccc5c4)[C@H]12)OC3=O (stereo partly shown) [DETD-53]
[1]
  IC50: 4.1 µM
[2]
  IC50: 3.8 µM
[3]
  IC50: 4.1 µM
[4]
  IC50: 4.8 µM
B16-F10 (NRAS mutation)
  IC50: 5.2 µM
[5]
  IC50: 6 µM
HTB-68 (NRAS mutation)
  IC50: 5 µM
A2058 (BRAF mutation)
  IC50: 5.5 µM
A375 (BRAF mutation)
  IC50: 2.8 µM
[6]
  IC50: > 10 µM
[7]
  IC50: > 10 µM
[8]
  IC50: 3.5 µM
[9]
  IC50: 1.6 to 9.9 µM

## C=C1C(=O)OC2CC3=C[C@@H](C/C(C)=C/[C@@H](OC(=O)/C=C/c4ccc(OCC)cc4)[C@H]12)OC3=O (stereo partly shown) [DETD-60]
[1]
  IC50: 2.1 µM
[2]
  IC50: 2.7 µM
[3]
  IC50: 3.3 µM
[4]
  IC50: 4 µM
B16-F10 (NRAS mutation)
  IC50: 4.9 µM
[5]
  IC50: 4.8 µM
HTB-68 (NRAS mutation)
  IC50: 4.9 µM
A2058 (BRAF mutation)
  IC50: 4.1 µM
A375 (BRAF mutation)
  IC50: 2 µM
[6]
  IC50: > 10 µM
[7]
  IC50: > 10 µM
[8]
  IC50: 3 µM
[9]
  IC50: 1.6 to 9.9 µM

## C=C1C(=O)OC2CC3=C[C@@H](C/C(C)=C/C(OC(=O)[C@H](C)c4ccc5cc(OC)ccc5c4)[C@H]12)OC3=O (stereo partly shown) [DETD-54]
[1]
  IC50: 3.1 µM
[2]
  IC50: 4.9 µM
[3]
  IC50: > 7.5 µM
[4]
  IC50: > 7.5 µM
B16-F10 (NRAS mutation)
  IC50: 6.6 µM
[5]
  IC50: 7.9 µM
HTB-68 (NRAS mutation)
  IC50: 7 µM
A2058 (BRAF mutation)
  IC50: 6.6 µM
A375 (BRAF mutation)
  IC50: 3.4 µM
[6]
  IC50: > 10 µM
[7]
  IC50: > 10 µM
[8]
  IC50: > 10 µM
[9]
  IC50: 1.6 to 9.9 µM

## C=C1C(=O)OC2CC3=C[C@@H](C/C(C)=C/C(OC(=O)c4cccs4)[C@H]12)OC3=O (stereo partly shown) [DETD-30]
[1]
  IC50: 2.4 µM
[2]
  IC50: 4.3 µM
[3]
  IC50: 3.7 µM
[4]
  IC50: > 7.5 µM
B16-F10 (NRAS mutation)
  IC50: 2.5 µM
[5]
  IC50: 9.1 µM
HTB-68 (NRAS mutation)
  IC50: 7.6 µM
A2058 (BRAF mutation)
  IC50: 5.2 µM
A375 (BRAF mutation)
  IC50: 3.4 µM
[6]
  IC50: > 10 µM
[7]
  IC50: > 10 µM
[8]
  IC50: 1.6 µM
[9]
  IC50: 1.6 to 9.9 µM

## C=C1C(=O)OC2CC3=C[C@@H](C/C(C)=C/C(OC(=O)/C=C/c4ccc(OC)cc4)[C@H]12)OC3=O (stereo partly shown) [DETD-26]
[1]
  IC50: 1.5 µM
[2]
  IC50: 4.1 µM
[3]
  IC50: 3.7 µM
[4]
  IC50 on cell viability, M10 (normal): some toxicity
  IC50: 4.7 µM
B16-F10 (NRAS mutation)
  IC50: 5 µM
[5]
  IC50: > 10 µM
HTB-68 (NRAS mutation)
  IC50: > 10 µM
A2058 (BRAF mutation)
  IC50: > 10 µM
A375 (BRAF mutation)
  IC50: > 10 µM
[6]
  IC50: > 10 µM
[7]
  IC50: > 10 µM
[8]
  IC50: 1.7 µM

## C=C1C(=O)OC2CC3=C[C@@H](C/C(C)=C/C(OC(=O)/C=C/c4cc(OC)c(OC)c(OC)c4)[C@H]12)OC3=O (stereo partly shown) [DETD-7]
[1]
  IC50: 1.8 µM
[2]
  IC50: 6.1 µM
[3]
  IC50: 2.3 µM
[4]
  IC50: > 7.5 µM
B16-F10 (NRAS mutation)
  IC50: 4.8 µM
[5]
  IC50: > 10 µM
HTB-68 (NRAS mutation)
  IC50: 8.4 µM
A2058 (BRAF mutation)
  IC50: 5.5 µM
A375 (BRAF mutation)
  IC50: 4.9 µM
[6]
  IC50: > 10 µM
[7]
  IC50: > 10 µM
[8]
  IC50: 2.2 µM
